# Tested on: breast and ovarian cancer cells
# Assay: CCK-8 cell proliferation/viability at fixed concentration
# Assay type: cell-based, human
# Details: 48 or 72 h
# Experimental: Cell viability assay was performed as described before. Briefly, 2500/well of breast or ovarian cancer cells were seeded into a 96-well plate; grown overnight; treated with indicated concentration of Olaparib, LY2835219, ZC22, LP-1, GC-24, or cisplatin alone or together for an indicated amount of time; and then incubated with Cell Counting kit-8 (CCK-8) substrate (Dojindo, Kumamoto, Kyushu Island, Japan) for 1–2 h at 37 °C. Cell viability was calculated by the absorbance at 450 nm measured by the GloMax Explorer (Promega, Madison, WI, USA). Cells without treatment were set as 100%, and medium control (no cells) was set as 0%.
# Figure 2 ZC-22 suppresses proliferation of breast and ovarian cancer cells. (A) IC50 of ZC-22, Olaparib, and LY2835219 (Abemaciclib) in breast and ovarian cancer cells. […] Cell proliferation was analyzed by CCK-8 assays. […] Cell proliferation assay was analyzed by CCK-8 assays. […]
# Figure 5 ZC-22 increases the sensitivity of breast and ovarian cancer cells to cisplatin. […] Representative pictures of EdU staining are shown in the left panels, and quantification of percentage of EdU-positive cells was presented in the bar graphs on the right, n = 3. […] (D) Representative pictures (left) and quantification of percentage (right) of γH2A.X-positive cells in MDA-MB-231 (top panels) and OVCAR5 (bottom panels) cells treated with DDP alone or together with OLA or ZC-22 for 24 h, n = 3. […]
smiles,measurement,setting,value
"Cc1nc2c(F)cc(-c3nc(Nc4ccc(N5CCN(C(=O)c6cc(Cc7n[nH]c(=O)c8ccccc78)ccc6F)CC5)cn4)ncc3F)cc2n1C(C)C [ZC-22, 4-(4-fluoro-3-(4-(6-((5-fluoro-4-(4-fluoro-1-isopropyl-2-methyl-1H-benzo[d]imidazole-6-yl)pyrimidin-2-yl)amino)pyridin-3-yl)piperazine-1-carbonyl)benzyl)phthalazin-1(2H)-one]",growth inhibition compared with Olaparib and Abemaciclib alone and combined,"MDA-MB-231 2 μM, SUM-159, OVCAR5, SKOV3 0.5 μM","better anti-tumor efficacy than the Olaparib and Abemaciclib monotherapy, and the combination therapy"
same,sensitization of cells to cisplatin (cell viability),cisplatin 2.5 μM (SKOV3 5 μM) together with 2 μM or 0.5 μM compound,greatly sensitized breast and ovarian cancer cells to cisplatin
